Results taken from publication PMC11881561 (Antimicrobial Agents and Chemotherapy, 2025).
Converted amounts (≈) assume the structure as drawn.

How the values were obtained:
[1] = target: T1, KPC-2 WT (Klebsiella pneumoniae, UniProt Q9F663); type: biochemical
Description: (§1) Measurements to determine kinetic parameters for hydrolysis, and kinetic parameters for inhibition were performed at ambient temperature in PBS (pH 7.4) containing 0.1 mg/mL bovine serum albumin, using a PowerWaveXS plate reader (BioTek).
(§2) Second-order rate constants (k2/K) denoting the inactivation efficiency of BLIs were determined by continuously measuring CENTA (100 µM) hydrolysis ([28]) in the presence of various concentrations of BLI. Progress curves were fit to equation 3 using GraphPad Prism, where Ai and A0 are the measured and basal absorbance, vi and vs are initial and final velocity, and t is time in seconds. k2/K was derived with equation 4. Koff was determined by the jump dilution method ([24]). Kd was estimated from the ratio between koff and k2/K.
(§3) (3) Ai=A0+vst(vi-vs)[1-e^-(kobs)t/kobs]
(§4) (4) kobs=k-2+(k2/KI)[I]/1+[S]/KM

[2] = target: T2, KPC-2^V240G (Klebsiella pneumoniae, UniProt Q9F663, V239G); assay: Inhibition kinetics (CENTA hydrolysis, jump dilution), KPC-2 V240G; type: biochemical
Description: as §1, §2, §3, §4

[3] = target: T3, KPC-2^D179Y (Klebsiella pneumoniae, UniProt Q9F663, D178Y); assay: Inhibition kinetics (CENTA hydrolysis, jump dilution), KPC-2 D179Y; type: biochemical; conditions: KPC-2 D179Y
Description: as §1, §2, §3, §4

[4] = target: T4, KPC-2^D179Y/T243M (Klebsiella pneumoniae, UniProt Q9F663, D178Y/T242M); assay: Inhibition kinetics (CENTA hydrolysis, jump dilution), KPC-2 D179Y/T243M; type: biochemical; conditions: KPC-2 D179Y/T243M
Description: as §1, §2, §3, §4

[5] = target: T5, KPC-3 WT (Klebsiella pneumoniae, UniProt Q9F663, H272Y); assay: Inhibition kinetics (CENTA hydrolysis, jump dilution), KPC-3 wt; type: biochemical
Description: as §1, §2, §3, §4

[6] = target: T6, KPC-3^V240G (Klebsiella pneumoniae, UniProt Q9F663, H272Y/V239G); assay: Inhibition kinetics (CENTA hydrolysis, jump dilution), KPC-3 V240G; type: biochemical
Description: as §1, §2, §3, §4

[7] = target: T7, KPC-3^D179Y (Klebsiella pneumoniae, UniProt Q9F663, D178Y/H272Y); assay: Inhibition kinetics (CENTA hydrolysis, jump dilution), KPC-3 D179Y; type: biochemical
Description: as §1, §2, §3, §4

[8] = target: T8, KPC-3^D179Y/T243M (Klebsiella pneumoniae, UniProt Q9F663, D178Y/H272Y/T242M); assay: Inhibition kinetics (CENTA hydrolysis, jump dilution), KPC-3 D179Y/T243M; type: biochemical
Description: as §1, §2, §3, §4

[9] = tested on: E. coli control strain lacking a β-lactamase; assay: microbe, parasite or virus in culture; type: cell-based; conditions: Escherichia coli, no KPC expressed, BLIs at fixed 4 μg/mL
[10] = tested on: engineered E. coli strain expressing KPC-2 wt; assay: microbe, parasite or virus in culture; type: cell-based; conditions: Escherichia coli; KPC-2 wt strain; BLIs at fixed 4 μg/mL
[11] = tested on: engineered E. coli strain expressing KPC-2^V240G; assay: microbe, parasite or virus in culture; type: cell-based; conditions: Escherichia coli, BLIs at fixed 4 μg/mL
[12] = tested on: engineered E. coli strain expressing KPC-2^D179Y; assay: microbe, parasite or virus in culture; type: cell-based; conditions: Escherichia coli, BLIs at fixed 4 μg/mL
[13] = tested on: engineered E. coli strain expressing KPC-2^D179Y/T243M; assay: microbe, parasite or virus in culture; type: cell-based; conditions: Escherichia coli, BLIs at fixed 4 μg/mL
[14] = tested on: engineered E. coli strain expressing KPC-3 wt; assay: microbe, parasite or virus in culture; type: cell-based; conditions: Escherichia coli; KPC-3 wt strain; BLIs at fixed 4 μg/mL
[15] = tested on: engineered E. coli strain expressing KPC-3^V240G; assay: microbe, parasite or virus in culture; type: cell-based; conditions: Escherichia coli, BLIs at fixed 4 μg/mL
[16] = tested on: engineered E. coli strain expressing KPC-3^D179Y; assay: microbe, parasite or virus in culture; type: cell-based; conditions: Escherichia coli, BLIs at fixed 4 μg/mL
[17] = tested on: engineered E. coli strain expressing KPC-3^D179Y/T243M; assay: microbe, parasite or virus in culture; type: cell-based; conditions: Escherichia coli, BLIs at fixed 4 μg/mL
[18] = tested on: E. coli strains expressing KPC-2^D179Y or KPC-2^D179Y/T243M; assay: microbe, parasite or virus in culture; type: cell-based; conditions: Escherichia coli
[19] = target: T2, KPC-2^V240G; type: biochemical
[20] = target: T3, KPC-2^D179Y; assay: β-lactam hydrolysis kinetics, purified KPC-2 D179Y; type: biochemical; conditions: substrate hydrolysis by KPC-2 D179Y
Description: as §1
(§5) Assays to determine Michaelis-Menten kinetic parameters were performed by mixing variable amounts of enzymes (depending on the enzyme-substrate pair), with serial dilutions of different BL substrates and continuously monitoring the reduction in absorbance associated with BL hydrolysis ([28], [36], [40], [41]). Kinetic parameters were determined by plotting initial rates of hydrolysis (v) as a function of substrate concentration [S] and fitting the data to equation 1 using GraphPad Prism,
(§6) (1) v=[Et]×kcat×[S]/KM+[S]
(§7) where [Et] is the enzyme concentration, kcat the turnover number and KM the Michaelis constant.

[21] = target: T4, KPC-2^D179Y/T243M; assay: β-lactam hydrolysis kinetics, purified KPC-2 D179Y/T243M; type: biochemical; conditions: substrate hydrolysis by KPC-2 D179Y/T243M
Description: as §1, §5, §6, §7

[22] = target: T5, KPC-3 WT; type: biochemical; conditions: substrate hydrolysis by KPC-3 WT
[23] = target: T6, KPC-3^V240G; type: biochemical
[24] = target: T7, KPC-3^D179Y; assay: β-lactam hydrolysis kinetics, purified KPC-3 D179Y; type: biochemical; conditions: substrate hydrolysis by KPC-3 D179Y
Description: as §1, §5, §6, §7

[25] = target: T8, KPC-3^D179Y/T243M; assay: β-lactam hydrolysis kinetics, purified KPC-3 D179Y/T243M; type: biochemical; conditions: substrate hydrolysis by KPC-3 D179Y/T243M
Description: as §1, §5, §6, §7

[26] = target: T1, KPC-2 WT; conditions: substrate hydrolysis by KPC-2 WT

T7 sequence (Q9F663 27-293 D178Y/H272Y): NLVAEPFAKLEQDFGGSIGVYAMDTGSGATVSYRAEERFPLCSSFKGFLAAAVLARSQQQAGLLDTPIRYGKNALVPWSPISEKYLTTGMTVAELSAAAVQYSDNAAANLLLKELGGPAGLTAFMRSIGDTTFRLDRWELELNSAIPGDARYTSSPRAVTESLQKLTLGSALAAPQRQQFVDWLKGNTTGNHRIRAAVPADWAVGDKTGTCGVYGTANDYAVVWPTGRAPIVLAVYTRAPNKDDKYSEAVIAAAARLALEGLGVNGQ
T3 sequence (Q9F663 25-293 D178Y): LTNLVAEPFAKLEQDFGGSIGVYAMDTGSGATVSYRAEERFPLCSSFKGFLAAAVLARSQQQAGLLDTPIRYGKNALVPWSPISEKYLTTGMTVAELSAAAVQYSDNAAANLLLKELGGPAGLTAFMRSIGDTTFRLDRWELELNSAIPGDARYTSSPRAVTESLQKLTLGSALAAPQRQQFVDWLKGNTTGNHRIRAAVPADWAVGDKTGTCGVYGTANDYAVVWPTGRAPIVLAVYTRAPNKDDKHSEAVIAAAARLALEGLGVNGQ
T1 sequence (Q9F663 25-293 limits assumed): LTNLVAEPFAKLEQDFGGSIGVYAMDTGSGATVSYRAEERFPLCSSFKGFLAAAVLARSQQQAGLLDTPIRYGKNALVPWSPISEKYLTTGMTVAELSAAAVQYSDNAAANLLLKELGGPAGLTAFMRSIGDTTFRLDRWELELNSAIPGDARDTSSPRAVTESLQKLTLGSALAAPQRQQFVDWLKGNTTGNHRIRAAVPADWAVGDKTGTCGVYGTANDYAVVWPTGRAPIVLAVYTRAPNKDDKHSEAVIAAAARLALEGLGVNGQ
T8 sequence (Q9F663 27-293 D178Y/T242M/H272Y): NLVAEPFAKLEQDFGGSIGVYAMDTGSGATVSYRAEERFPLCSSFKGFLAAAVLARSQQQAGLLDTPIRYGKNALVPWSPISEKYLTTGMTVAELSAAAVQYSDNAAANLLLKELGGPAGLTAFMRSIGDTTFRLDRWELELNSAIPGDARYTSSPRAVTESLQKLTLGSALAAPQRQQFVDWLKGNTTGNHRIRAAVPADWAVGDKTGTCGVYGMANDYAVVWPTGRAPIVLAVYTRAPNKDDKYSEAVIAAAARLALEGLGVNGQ
T6 sequence (Q9F663 27-293 V239G/H272Y): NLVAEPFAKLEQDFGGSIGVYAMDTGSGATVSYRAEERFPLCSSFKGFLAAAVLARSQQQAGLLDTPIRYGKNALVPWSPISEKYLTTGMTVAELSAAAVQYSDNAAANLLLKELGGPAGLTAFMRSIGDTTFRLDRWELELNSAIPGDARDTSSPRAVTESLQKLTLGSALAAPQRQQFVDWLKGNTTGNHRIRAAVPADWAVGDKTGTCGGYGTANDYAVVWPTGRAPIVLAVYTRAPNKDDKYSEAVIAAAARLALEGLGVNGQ
T4 sequence (Q9F663 25-293 D178Y/T242M): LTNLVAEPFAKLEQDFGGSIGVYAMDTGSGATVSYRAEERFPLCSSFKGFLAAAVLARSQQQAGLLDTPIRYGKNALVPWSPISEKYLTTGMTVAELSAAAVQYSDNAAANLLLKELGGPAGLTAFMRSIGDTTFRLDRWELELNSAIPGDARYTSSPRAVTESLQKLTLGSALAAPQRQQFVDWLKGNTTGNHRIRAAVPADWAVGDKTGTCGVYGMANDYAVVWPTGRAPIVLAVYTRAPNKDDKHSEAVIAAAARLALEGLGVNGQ
T2 sequence (Q9F663 25-293 V239G): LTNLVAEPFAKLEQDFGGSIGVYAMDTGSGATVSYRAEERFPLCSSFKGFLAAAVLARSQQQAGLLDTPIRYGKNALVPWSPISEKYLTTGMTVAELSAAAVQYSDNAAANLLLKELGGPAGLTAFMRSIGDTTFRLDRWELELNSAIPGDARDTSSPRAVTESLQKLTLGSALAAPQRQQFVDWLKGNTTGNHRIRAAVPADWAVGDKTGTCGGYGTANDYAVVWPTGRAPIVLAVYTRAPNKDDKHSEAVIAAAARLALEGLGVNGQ
T5 sequence (Q9F663 27-293 H272Y): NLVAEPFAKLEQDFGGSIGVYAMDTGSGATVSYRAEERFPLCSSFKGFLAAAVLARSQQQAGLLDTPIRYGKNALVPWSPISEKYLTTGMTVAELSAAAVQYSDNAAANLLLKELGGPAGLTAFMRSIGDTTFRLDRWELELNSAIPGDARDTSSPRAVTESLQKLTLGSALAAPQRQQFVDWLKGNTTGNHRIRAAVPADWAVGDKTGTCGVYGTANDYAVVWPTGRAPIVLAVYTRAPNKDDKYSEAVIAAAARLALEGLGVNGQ

SMILES: NC(=O)[C@@H]1CC[C@@H]2CN1C(=O)N2OS(=O)(=O)O [AVI, avibactam]
- t1/2 [1]: 21.4 ± 0.07 min
- t1/2 [2]: 21.5 ± 0.06 min
- t1/2 [3]: 205 ± 10 min
- t1/2 [4]: 198 ± 8 min
- t1/2 [5]: 10.1 ± 0.1 min
- t1/2 [6]: 10.7 ± 0.1 min
- t1/2 [7]: 12.8 ± 0.9 min
- t1/2 [8]: 22.5 ± 3.5 min

SMILES: CC(C)(O/N=C(\C(=O)N[C@@H]1C(=O)N2C(C(=O)[O-])=C(C[n+]3ccccc3)CS[C@H]12)c1csc(N)n1)C(=O)O [CAZ, ceftazidime]
- MIC [9]: 0.5 µg/mL (≈ 0.915 µM)
- MIC [10]: 64 µg/mL (≈ 117 µM)
- MIC [11]: > 256 µg/mL
- MIC [12]: > 256 µg/mL
- MIC [13]: > 256 µg/mL
- MIC [14]: 256 µg/mL (≈ 468 µM)
- MIC [15]: > 256 µg/mL
- MIC [16]: > 256 µg/mL
- MIC [17]: > 256 µg/mL
- MIC [18]: > 256 µg/mL

SMILES: O=C(Cc1cccs1)N[C@@H]1C(=O)N2C(C(=O)O)=C(CSc3ccc([N+](=O)[O-])c(C(=O)O)c3)CS[C@H]12 [CENTA]
- Km [19]: 63.3 ± 2.3 µM
- kcat [19]: 662 ± 9.6 s⁻¹
- Km [20]: 1.9 ± 0.2 µM
- kcat [20]: (1.2 ± 0.08) × 10^−2 s^−1
- Km [21]: 2.1 ± 0.3 µM
- kcat [21]: (0.9 ± 0.04) × 10^−2 s^−1
- Km [22]: 105 ± 24 µM
- kcat [22]: 38 ± 3.4 s⁻¹
- Km [23]: 54.8 ± 8.3 µM
- kcat [23]: 12.7 ± 1.1 s⁻¹
- Km [24]: 124 ± 17 µM
- kcat [24]: 0.24 ± 0.02 s⁻¹
- Km [25]: 153 ± 25 µM
- kcat [25]: 0.18 ± 0.02 s⁻¹
- kcat [26]: 243 ± 11 s⁻¹
- Km ([26]; PBS pH 7.4): 19.7 ± 1.3 µM
